The NIST ThermoML archive (doi:10.1021/acs.jced.8b00011)
Several values for one entry are separate records, joined by “and”; a condition that tells them apart may be missing. Equal values may be shown once.

Conditions: Liquid; for mass density: Vibrating tube method; for electrical conductivity: electrochemical impedance spectroscopy

CCCCC[P+](CC)(CC)CC.O=S(=O)([N-]S(=O)(=O)C(F)(F)F)C(F)(F)F
Conditions | electrical conductivity | mass density
323.15 K, 5000 kPa | – | 1286.05 kg/m3
323.15 K, 10000 kPa | – | 1289.93 kg/m3
323.15 K, 15000 kPa | – | 1293.65 kg/m3
323.15 K, 20000 kPa | – | 1297.31 kg/m3
323.15 K, 25000 kPa | – | 1300.84 kg/m3
323.15 K, 30000 kPa | – | 1304.31 kg/m3
323.15 K, 35000 kPa | – | 1307.72 kg/m3
323.15 K, 40000 kPa | – | 1311.03 kg/m3
323.15 K, 45000 kPa | – | 1314.23 kg/m3
323.15 K, 50000 kPa | – | 1317.43 kg/m3
328.15 K, 101.33 kPa | 0.515 S/m and 0.516 S/m | –
333.15 K, 100 kPa | – | 1273.44 kg/m3 [middle of 6 runs]
333.15 K, 101.33 kPa | 0.598 S/m and 0.6 S/m | –
333.15 K, 1000 kPa | – | 1274.41 kg/m3
333.15 K, 5000 kPa | – | 1277.68 kg/m3
333.15 K, 10000 kPa | – | 1281.66 kg/m3
333.15 K, 15000 kPa | – | 1285.53 kg/m3
333.15 K, 20000 kPa | – | 1289.3 kg/m3
333.15 K, 25000 kPa | – | 1292.91 kg/m3
333.15 K, 30000 kPa | – | 1296.47 kg/m3
333.15 K, 35000 kPa | – | 1299.98 kg/m3
333.15 K, 40000 kPa | – | 1303.38 kg/m3
333.15 K, 45000 kPa | – | 1306.68 kg/m3
333.15 K, 50000 kPa | – | 1309.96 kg/m3
338.15 K, 101.33 kPa | 0.687 S/m and 0.689 S/m | –
343.15 K, 100 kPa | – | 1264.95 kg/m3 [middle of 6 runs]
343.15 K, 101.33 kPa | 0.784 S/m and 0.786 S/m | –
343.15 K, 1000 kPa | – | 1265.61 kg/m3
343.15 K, 5000 kPa | – | 1269.03 kg/m3
343.15 K, 10000 kPa | – | 1273.12 kg/m3
343.15 K, 15000 kPa | – | 1277.12 kg/m3
343.15 K, 20000 kPa | – | 1280.98 kg/m3
343.15 K, 25000 kPa | – | 1284.76 kg/m3
343.15 K, 30000 kPa | – | 1288.39 kg/m3
343.15 K, 35000 kPa | – | 1291.99 kg/m3
343.15 K, 40000 kPa | – | 1295.5 kg/m3

Conditions | electrical conductivity [S/m] | viscosity
323.15 K, 5900 kPa, Frequency=0 MHz | 0.411 | –
323.15 K, 10600 kPa, Falling or rolling sphere viscometry | – | 33.85 mPa·s
323.15 K, 10600 kPa, Frequency=0 MHz | 0.393 | –
323.15 K, 20500 kPa, Falling or rolling sphere viscometry | – | 37.97 mPa·s
323.15 K, 30600 kPa, Falling or rolling sphere viscometry | – | 42.53 mPa·s
323.15 K, 40300 kPa, Falling or rolling sphere viscometry | – | 47.23 mPa·s
323.15 K, 50500 kPa, Falling or rolling sphere viscometry | – | 52.72 mPa·s
323.15 K, 60300 kPa, Falling or rolling sphere viscometry | – | 58.3 mPa·s
323.15 K, 77000 kPa, Frequency=0 MHz | 0.211 | –
323.15 K, 80500 kPa, Falling or rolling sphere viscometry | – | 71.43 mPa·s
323.15 K, 100200 kPa, Falling or rolling sphere viscometry | – | 86.46 mPa·s
323.15 K, 120600 kPa, Falling or rolling sphere viscometry | – | 104.7 mPa·s
323.15 K, 126900 kPa, Frequency=0 MHz | 0.138 | –
323.15 K, 140600 kPa, Falling or rolling sphere viscometry | – | 125.7 mPa·s
323.15 K, 160500 kPa, Falling or rolling sphere viscometry | – | 149.6 mPa·s
323.15 K, 180500 kPa, Falling or rolling sphere viscometry | – | 178.5 mPa·s
323.15 K, 200300 kPa, Falling or rolling sphere viscometry | – | 210.1 mPa·s
323.15 K, 201300 kPa, Frequency=0 MHz | 0.0751 | –
323.15 K, 210900 kPa, Falling or rolling sphere viscometry | – | 232.2 mPa·s
323.15 K, 225200 kPa, Frequency=0 MHz | 0.0625 | –
323.15 K, 250100 kPa, Frequency=0 MHz | 0.0517 | –
323.16 K, 14400 kPa, Frequency=0 MHz | 0.378 | –
323.16 K, 20500 kPa, Frequency=0 MHz | 0.356 | –
323.16 K, 25800 kPa, Frequency=0 MHz | 0.338 | –
323.16 K, 30200 kPa, Frequency=0 MHz | 0.324 | –
323.16 K, 40000 kPa, Frequency=0 MHz | 0.295 | –
323.16 K, 49900 kPa, Frequency=0 MHz | 0.269 | –
333.15 K, 100 kPa, Concentric cylinders viscometry | – | 21.51 mPa·s
333.15 K, 100 kPa, Falling or rolling sphere viscometry | – | 21.43 mPa·s [middle of 4 runs]
333.15 K, 700 kPa, Falling or rolling sphere viscometry | – | 21.55 mPa·s
333.15 K, 10400 kPa, Falling or rolling sphere viscometry | – | 23.8 mPa·s
333.15 K, 10600 kPa, Falling or rolling sphere viscometry | – | 24.11 mPa·s
333.15 K, 19700 kPa, Falling or rolling sphere viscometry | – | 26.33 mPa·s
333.15 K, 20300 kPa, Falling or rolling sphere viscometry | – | 26.81 mPa·s
333.15 K, 30600 kPa, Falling or rolling sphere viscometry | – | 29.93 mPa·s and 29.71 mPa·s
333.15 K, 40300 kPa, Falling or rolling sphere viscometry | – | 32.65 mPa·s
333.15 K, 40600 kPa, Falling or rolling sphere viscometry | – | 33.21 mPa·s
333.15 K, 50400 kPa, Falling or rolling sphere viscometry | – | 36.22 mPa·s
333.15 K, 50600 kPa, Falling or rolling sphere viscometry | – | 36.73 mPa·s
333.15 K, 60500 kPa, Falling or rolling sphere viscometry | – | 40.1 mPa·s
333.15 K, 60600 kPa, Falling or rolling sphere viscometry | – | 40.52 mPa·s
333.15 K, 80200 kPa, Falling or rolling sphere viscometry | – | 48.82 mPa·s
333.15 K, 99600 kPa, Falling or rolling sphere viscometry | – | 58.36 mPa·s
343.15 K, 100 kPa, Concentric cylinders viscometry | – | 15.99 mPa·s
343.15 K, 100 kPa, Falling or rolling sphere viscometry | – | 15.89 mPa·s and 15.97 mPa·s
